Measured values reported in patent US20250319053A1, “INHIBITORS OF THE PEPTIDYL-PROLYL CIS/TRANS ISOMERASE (PIN1), COMBINATIONS AND USES THEREOF” (DANA-FARBER CANCER INSTITUTE, INC., priority 2021, published 2025).

Assays:
advanced PDAC patients = settings: cited from earlier work
splenocytes = assay: Immune profiling of splenocytes by flow cytometry; type: in vivo, mouse; settings: 40 mg/kg i.p. daily for 5 weeks
Method: After filtered, cell lysate was collected. To assess cell surface expressions, cells were harvested by non-enzymatic cell dissociation solution, and resuspend in blocking solution (Cell Staining Buffer, BioLegend). Cells were incubated with following antibodies; […] For FOXP3 staining, cells were fixed and permeabilized using Foxp3/Transcription Factor Staining Buffer Set (00-5523, eBioscience), and incubated with FOXP3-FITC (11-5773-82, Invitrogen) for 30 mins at RT. For Granzyme B staining, cells were fixed and permeabilized using Intracellular Fixation & Permeabilization Kit (88-8824-00, eBioscience), and incubated with Granzyme B-FITC (515403, BioLegend) for 30 mins at RT. All antibodies were diluted according to manufacture instruction. Cells were analyzed using CytoFLEX flow cytometer and CytExpert software (Beckman Coulter, IN, USA). Table 2 is a table of immune profiling of splenocytes from Pin1i−2 treated non-tumor-bearing B6 mice. See also FIG. 1A-FIG. 1G, FIG. 8A-FIG. 8O, and FIG. 9A-9L. WT B6 mice (non-tumor-bearing mice) were treated with vehicle or Pin1i−2 (40 mg/kg, i.p., daily) for 5 weeks, followed by examining the immune profile of splenocytes using flow cytometry (n=5).

[1] = test system: primary human CAFs (CAF1 and CAF2); assay: Cell proliferation assay (CellTiter-Glo) in CAFs; type: cell-based; settings: 72 hrs
Method: Cells were seeded at a density of 5000 cells (PDAC1 and PDAC2), or 3000 cells (CAF1 and CAF2) per well in 96-well flat-bottomed plates and incubated for 24 h in culture medium. […] Control cells received dimethyl sulfoxide (DMSO) at a concentration equal to that of drug-treated cells for 72 hours. The cell viability was determined by CellTiter-Glo® 2.0 Assay (Promega) following the manufacturer's instructions.

human PDAC organoids = assay: Organoid apoptosis assay, co-culture with activated human PBMCs; type: cell-based; settings: Pin1i−2 at 5 μM 3 days, αPD1 at 200 μg/mL for 40 hrs
Method: For assaying the effects of Pin1 inhibition on anti-PD1 or PDL1 sensitivity, organoids and PBMCs were co-culture as described previously (Dijkstra et al., 2018; Jiao et al., 2017). […] Human PBMCs (Precision for Medicine) were stimulated by PDAC organoid culture media, and 8.0×10^4 PBMCs were incubated with 2 pl CD3/28 beads (11161D, GIBCO) and 30 U recombinant IL-2 (200-02, Peprotech) per well in 96-well plates for 24 hours before starting co-culture. […] At the start of co-culture, a green-fluorescent caspase 3/7 probe reagent (R37111, Invitrogen) and Hoechst (135102, Invitrogen) were added to visualize cells undergoing apoptosis. Apoptotic organoids were monitored by live-cell time lapse imaging was started 2 hours after the start of co-culture using BZ-X800 fluorescence microscope (KEYENCE) and quantified using BZ-X800 analyzer (ver. 1.1.1.8, KEYENCE). […] Synergy scores were calculated by Synergyfinder ver 2 (synergyfinder.fimm.fi/) (Ianevski et al., Nucleic Acids Res. 48 IW1), […]-[…] (2020)).

Pin1 [2] = molecular target: T1, Pin1 (Homo sapiens, UniProt Q13526); assay: Immunoblotting for Pin1 and substrate oncoproteins in CAFs; type: cell-based; set-up: endogenous in cells; settings: 72 hrs
Method: Cultured cells were lysed in RIPA buffer (50 mM Tris-HCl, pH 7.2, 150 mM NaCl, 1% NP40, 0.1% sodium dodecyl sulfate (SDS), 0.25% Na-deoxycholate) with freshly added phosphatase inhibitors containing 5 mM NaF and 0.2 mM sodium orthovanadate (NA3VO4), and proteinase inhibitors containing 2 μg/mL Aprotinin, 2 μg/mL Leupeptin, 2 μg/mL Pepstatin A, 1 mM DTT (dithiothreitol), 0.5 mM 4-(2-aminoethyl)-benzenesulfonyl fluoride (AEBSF), and 20 mM Chymotrypsin, and then mixed with the SDS sample buffer and loaded onto a gel after boiling for 10 minutes at 95° C. The proteins were resolved by polyacrylamide gel electrophoresis and transferred to PVDF membrane. The transferred membrane was washed three times with Tris-buffered saline containing 0.1% Tween 20 (TBST). After blocking with TBST containing 5% milk or 3% bovine serum albumin (BSA) for 1 h room temperature, the membrane was incubated with the appropriate primary antibody (diluted 1:500-1:10000) in 5% milk or 3% BSA-containing TBST at 4° C. overnight. […] After three extensive washes with TBST for a total of 30 min, the immunoblots were visualized by enhanced chemi-luminescence. Immunoblotting results were quantified using ImageJ (NIH).

Pin1 [3] = molecular target: T1, Pin1; assay: Immunoblotting for Pin1 and substrate oncoproteins in PDAC cells; type: cell-based; set-up: endogenous in cells; host or cells: primary human patient-derived PDAC cells (PDAC1, PDAC2); settings: 72 hrs
Method: Cultured cells were lysed in RIPA buffer (50 mM Tris-HCl, pH 7.2, 150 mM NaCl, 1% NP40, 0.1% sodium dodecyl sulfate (SDS), 0.25% Na-deoxycholate) with freshly added phosphatase inhibitors containing 5 mM NaF and 0.2 mM sodium orthovanadate (NA3VO4), and proteinase inhibitors containing 2 μg/mL Aprotinin, 2 μg/mL Leupeptin, 2 μg/mL Pepstatin A, 1 mM DTT (dithiothreitol), 0.5 mM 4-(2-aminoethyl)-benzenesulfonyl fluoride (AEBSF), and 20 mM Chymotrypsin, and then mixed with the SDS sample buffer and loaded onto a gel after boiling for 10 minutes at 95° C. The proteins were resolved by polyacrylamide gel electrophoresis and transferred to PVDF membrane. The transferred membrane was washed three times with Tris-buffered saline containing 0.1% Tween 20 (TBST). After blocking with TBST containing 5% milk or 3% bovine serum albumin (BSA) for 1 h room temperature, the membrane was incubated with the appropriate primary antibody (diluted 1:500-1:10000) in 5% milk or 3% BSA-containing TBST at 4° C. overnight. After incubation with the primary antibody, the membrane was washed three times with TBST for a total of 30 min followed by incubation with horseradish peroxidase conjugated goat anti-rabbit or anti-mouse IgG (diluted 1:5000) for 1 h at room temperature. After three extensive washes with TBST for a total of 30 min, the immunoblots were visualized by enhanced chemi-luminescence. Immunoblotting results were quantified using ImageJ (NIH).

T1 sequence (Q13526 whole entry): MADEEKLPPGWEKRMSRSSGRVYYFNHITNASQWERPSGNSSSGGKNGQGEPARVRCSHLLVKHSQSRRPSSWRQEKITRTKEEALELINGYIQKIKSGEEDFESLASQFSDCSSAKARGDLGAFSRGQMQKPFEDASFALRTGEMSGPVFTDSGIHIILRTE

Q: Which “overall survival (OS)” value (advanced PDAC patients) does the source give for `Nc1ccn([C@@H]2O[C@H](CO)[C@@H](O)C2(F)F)c(=O)n1` [GEM, gemcitabine, reference compound] here?
A: The value was 6.6 month.

Q: And the response rate (advanced PDAC patients)?
A: Its response rate is 23.8%.

Q: What does the source list for `CC(C)(C)CN(C(=O)CCl)C1CCS(=O)(=O)C1` (stereo not drawn) [Pin1i−2, sulfopin]?
A: CD3−CD11b+ Myeloid cells (splenocytes; n=5): 6.79 % of CD45+ cell; CD8a+ T-cell (splenocytes; n=5): 14.30 % of CD45+ cell; CD11b+Ly6G+ Myeloid Cells (splenocytes; n=5): 1.71 % of CD45+ cell; CD11c+MHC-II+ DCs (splenocytes; n=5): 1.48 % of CD45+ cell; CD45+CD3+ Cells (splenocytes; n=5): 27.77 % of CD45+ cell; F4/80+ Macrophages (splenocytes; n=5): 3.54 % of CD45+ cell; CTLA4 (splenocytes; listed under CD8a+ T-cell): 76.08 MFI; Lag3 (splenocytes; listed under CD8a+ T-cell): 449.84 MFI; MHC-ClassI (splenocytes; listed under CD8a+ T-cell): 11456.80 MFI; PD-1 (splenocytes; listed under CD8a+ T-cell): 67.90 MFI; PD-L1 (splenocytes; listed under CD11b+Ly6G+ Myeloid Cells): 12447.46 MFI; PD-L1 (splenocytes; listed under CD11c+MHC-II+ DCs): 89012.88 MFI; CAF proliferation (cell growth) [1]: suppression of CAF proliferation; apoptosis of WT organoids (human PDAC organoids): promoted the apoptosis of WT organoids; Pin1 and its substrate oncoproteins (IB) (Pin1 [2]): dose-dependently reduced Pin1 and its many substrate oncoproteins; Pin1 and its substrate oncoproteins (IB) (Pin1 [3]): ablate Pin1
